Results: patent US20250121067A1, “WATER-SOLUBLE CANNABINOID PRODRUGS COMPOSITIONS AND METHODS OF SYNTHESIZING THE SAME” (Trait Biosciences, Inc., priority 2022, published 2025)

Key:
[1] = intrinsic aqueous solubility; Int. J. Pharmaceutics 2020, 589, 119812; cited from earlier work
physchem = settings: aqueous medium, thermodynamic from solid, room temperature
Description: The thermodynamic aqueous solubility of CBD and CBG glycine conjugates in salt forms was determined using the equilibrium shake method outlined in the United States Pharmacopeia (USP) General Chapter <1236>Solubility Measurements (Table 1).

[2] = Solubility (mg/mL) CBD/CBG equivalent, expressed as CBD/CBG equivalent
[3] = Solubility (mg/mL) Salt derivative, expressed as salt derivative

| Compound | solubility of CBD [1] [µg/mL] | solubility (physchem; [2]) [µg/mL] | solubility (physchem; [3]) [µg/mL] |
| --- | --- | --- | --- |
| C=C(C)[C@@H]1CCC(C)=C[C@H]1c1c(O)cc(CCCCC)cc1O [CBD, cannabidiol] | 0.1 |  |  |
| CCCCCc1cc(O)c(C/C=C(\C)CCC=C(C)C)c(OC(=O)NCC(=O)[O-])c1.[Na+] [Example 10, Sodium (E)-((2-(3,7-dimethylocta-2,6-dien-1-yl)-3-hydroxy-5-pentylphenoxy)carbonyl)glycinate] |  | 10000 | 13300 |
| C=C(C)[C@@H]1CCC(C)=C[C@H]1c1c(O)cc(CCCCC)cc1OC(=O)NCC(=O)[O-].[Na+] [Example 3, Sodium ((((1′R,2′R)-6-hydroxy-5′-methyl-4-pentyl-2′-(prop-1-en-2-yl)-1′,2′,3′,4′-tetrahydro-[1,1′-biphenyl]-2-yl)oxy)carbonyl)glycinate] |  | 3140 | 4370 |
